Source: publication PMC11232385, “Selective depletion of HBV-infected hepatocytes by class A capsid assembly modulators requires high levels of intrahepatic HBV core protein” (Antimicrobial Agents and Chemotherapy, 2024)
Where two headings read alike, the source gives them in different places.

Legend:
[1] = tested on: HBV genotype D; test: Antiviral activity in HBV-infected PHH, drugs added day 3 post infection, 6 days of treatment; assay type: cell-based, Hepatitis B virus
Description: (§1) Cryopreserved PHHs isolated from multiple donors were purchased from Thermo Fisher Scientific (Waltham, MA), Bioreclamation IVT (Hicksville, NY), or Lonza (USA). PHH culturing conditions as previously described ([11]). Approximately 24 h after plating, PHH was infected with HepAD38-derived HBV virions ([36]) (genotype D virus) at 500 viral genome equivalents per cell in a maintenance medium supplemented with 4% PEG 8000 (Promega, Madison, WI; V3011). The infection was allowed to proceed for 20–24 h before removing remaining extracellular virions by washing with a maintenance medium three times.
Extracellular HBsAg and HBeAg were detected in culture media by an electrochemiluminescence assay (Meso Scale Discovery [MSD]) as previously described ([37]).
Extracellular HBV DNA from PHH supernatants was purified using the Qiagen DNeasy 96 kit (69582) following the protocol recommended by the manufacturer. Quantification of HBV DNA by qPCR amplification of the HBV X region of the genome was performed as previously reported ([11]).
(§2) Antiviral activity or cytotoxicity of each test compound was determined from, extracellular HBV DNA, HBeAg, HBsAg, and alamarBlue data by comparing compound-treated PHH to DMSO-treated PHH to generate a percent of DMSO control value (% DMSO control). The % DMSO control was calculated by the following equation: % DMSO Control = 100× (XC/XD) where XC is the signal from the compound-treated PHH, and XD is the signal from the DMSO-treated PHH. The percentage of DMSO control for HBV DNA, HBeAg, HBsAg, and alamarBlue was plotted vs the log of each compound concentration in GraphPad Prism (version 6; GraphPad Software, La Jolla, CA) to generate dose-response curves. […] Error bars represent SD. Statistical analyses were performed by two-way analysis of variance (ANOVA) and Pearson’s correlation tests.

[2] = tested on: PHH; test: Cytotoxicity (alamarBlue) in HBV-infected PHH, 6 days of treatment; assay type: cell-based, human
Description: as §1, §2

[3] = tested on: AAV-HBV (HBV genotype D); test: Efficacy study in the AAV-HBV mouse model; assay type: in vivo, C57BL/6 mice; details: for serum ALT: during 56 days of treatment; for serum HBV DNA reduction / reduction of HBc-positive cells in the liver / HBeAg reduction / HBsAg reduction: end of treatment (day 56); for serum HBV DNA reduction: oral QD; for reduction of HBc-positive cells in the liver: immunofluorescence; for HBeAg reduction / HBsAg reduction: relative to vehicle
Description: Recombinant AAV (serotype 8) carrying the 1.3 copy HBV genome (genotype D; serotype ayw) and empty AAV were provided by Beijing FivePlus Molecular Medicine Institute (Beijing, China). C57BL/6 mice were provided by Shanghai Lingchang Bio Tech Co. Ltd (Shanghai, China). Studies were conducted by Covance Pharmaceutical R&D (Shanghai, China). All procedures implemented during the studies followed local animal welfare legislation, Covance global policies and procedures, and the Guide for the Care and Use of Laboratory Animals.
C57BL/6 mice (male; 4–5 weeks of age) were injected with 200 µL PBS containing 1 × 10^11 vge recombinant virus per mouse through the tail vein. Twenty-eight days after AAV-HBV injection, the mice were bled retro-orbitally to monitor HBsAg and HBV genomic DNA in serum. Based on the HBsAg, HBeAg, and HBV DNA levels and body weight, AAV-HBV-infected mice were selected and randomized into groups (six animals per group) for compound and/or siRNA treatment. […] LNP empty and LNP siRNA 3 mg/kg were injected intravenously at 4 mL/kg on dosing days 0, 14, 28, 42, and 56. […] Serum HBsAg, HBeAg, and HBV DNA were measured twice weekly. ALT was measured once weekly throughout the study. Serum HBsAg and HBeAg were determined by […] i2000 (Abbott Laboratories, Lake Bluff, IL, USA). Serum HBV-DNA was analyzed by ABI7500 (Applied Biosystems, Foster City, CA, USA) and a detection kit (Sansure Biotech Inc., Changsha, Hunan, China). Serum ALT was determined using Roche Cobas 6000 Chemistry Analyzer (Roche Diagnostics, Mannheim, Germany) and supporting reagents.
(§3) Dewaxing and unmasking of antigens were performed on a Bond RX autostainer (Leica Biosystem), and subsequent assay modified for a single round of staining was performed using the Opal technology workflow (Akoya Biosciences), as described previously ([39]).

[4] = tested on: HBV genotype C; assay type: in vivo, uPA-SCID mice; details: uPA-SCID mouse; for mean decrease of serum HBV DNA: compared to the vehicle, 84 days oral QD; for HBsAg decline: day 84 vs day 0
Description: General health observations including weight were monitored weekly. All animal protocols were performed in accordance with the Guide for the Care and Use of Laboratory Animals and approved by the Animal Welfare Committee of Phoenix Bio Co., Ltd. All mice were housed individually and maintained in accordance with the Animal Ethics Committee of PhoenixBio (resolution #2214).
HBV-infected mice were randomized into four different treatment groups based on body weight, blood human albumin (h-Alb), and serum HBV DNA concentrations. All mice had blood h-Alb levels above 12 mg/mL and serum HBV DNA levels above 6.8 × 10^8 copies/mL. […] Mice were followed for an additional 28 days following cessation of treatment at day 84. Mouse serum was monitored weekly for serum HBV DNA and HBV antigens and biweekly for human (h) ALT1. Serum HBsAg and HBeAg concentrations were determined by SRL, Inc. (Tokyo, Japan) based on Chemiluminescent Enzyme Immuno Assay. HBV DNA concentration was performed using the TaqMan Fast Advanced Master Mix (Applied Biosystems, Thermo Fisher Scientific Inc.) and Applied Biosystems 7500 Real-Time PCR System (Applied Biosystems). Serum h-ALT1 concentration was determined by the Institute of Immunology Co., Ltd. (Tokyo, Japan) based on Enzyme-Linked ImmunoSorbent Assay.
as §3

[5] = AAV-HBV mouse, 100 mg-eq/kg oral QD
[6] = uPA-SCID mouse, 100 mg-eq/kg oral QD
[7] = tested on: HBV cccDNA; details: cited from earlier work
[8] = tested on: HBV; set-up: method as in doi:10.1016/S0168-8278(20)32197-8; details: cited from earlier work
[9] = tested on: HBV; set-up: method as in doi:10.1016/S0168-8278(22)00964-3, doi:10.1016/S0168-8278(22)02029-3; details: treatment-naïve and NA-suppressed patients, with an NA; cited from earlier work

CNC(=O)C1(NC(=O)C(=O)c2c(C)c(C(=O)Nc3ccc(F)c(F)c3)n3c2CCC3)CC(F)(F)C1 [GS-SBA-1P]
EC50 ([1]; extracellular HBV DNA, mean ± SD, read-out: Viral DNA EC50): 0.012 ± 0.0012 µM
EC50 ([1]; read-out: HBeAg EC50): > 2 µM
EC50 ([1]; read-out: HBsAg EC50): > 2 µM
CC50 [2]: > 2 µM
serum ALT [3]: no changes
serum HBV DNA reduction [3]: 3.7 log10
reduction of HBc-positive cells in the liver [3]: minimal reduction
HBeAg reduction [3]: no changes
HBsAg reduction [3]: no changes
mean decrease of serum HBV DNA [4]: 5.0 log10
HBsAg decline [4]: 0.4 log10
reduction of HBc-positive cells in the liver ([4]; immunofluorescence, compared to vehicle or TAF-treated animals): 30%
plasma and liver concentrations over the paEC50 [5]: approximately 76 fold
plasma exposures over the mouse plasma-adjusted EC50 of HBV DNA production [6]: greater than 76 fold
concentration blocking cccDNA establishment over the HBV DNA plasma-adjusted EC50 [7]: six-fold

CC(C)OC(=O)[C@H](C)N[P@](=O)(CO[C@H](C)Cn1cnc2c(N)ncnc21)Oc1ccccc1 [TAF, tenofovir alafenamide]
serum ALT [3]: no changes
serum HBV DNA reduction [3]: 2.5 log10
reduction of HBc-positive cells in the liver [3]: no change
HBeAg reduction [3]: no changes
HBsAg reduction [3]: no changes
mean decrease of serum HBV DNA [4]: 3.6 log10
HBsAg decline [4]: 0.35 log10

CCOC(=O)C1=C(CN2CCOCC2)NC(c2nccs2)=NC1c1ccc(F)cc1Br (stereo not shown) [GLS4]
HBsAg reduction ([8]; treatment-naïve HBeAg-positive patients): 0.4 log10 IU/mL
HBsAg effect ([8]; virally suppressed patients): no effect

CCOC(=O)C1=C(CN2CCN3C(=O)N(CC(C)(C)C(=O)O)C[C@@H]3C2)N=C(c2nccs2)N[C@H]1c1cccc(F)c1C [RG7907]
HBsAg reduction [9]: no significant reduction of HBsAg
